Source: the supplement of paper PMC13207355
Structures can show the parent of a compound that is named as a salt.

Tests used:
Details in all cases: exposure time: 72 h
E31 [1] = patient-derived glioblastoma stem cells of proneural subtype; experiment: surviving fraction (nuclei count normalised to DMSO); higher = more cells surviving (less toxic)
E57 [2] = patient-derived glioblastoma stem cells of mesenchymal subtype; experiment: as above
E34 [3] = patient-derived glioblastoma stem cells of proneural subtype; experiment: as above
E21 [4] = patient-derived glioblastoma stem cells of mesenchymal subtype; experiment: as above
E28 [5] = patient-derived glioblastoma stem cells of classical subtype; experiment: as above
E13 [6] = patient-derived glioblastoma stem cells of classical subtype; experiment: as above
FT3469 [7] = normal neural stem cell line; experiment: as above
E31 [8] = experiment: phenotypic distance (Euclidean, principal components) from DMSO controls (arbitrary units); higher = stronger morphological change
E57 [9] = experiment: as above
E34 [10] = experiment: as above
E21 [11] = experiment: as above
E28 [12] = experiment: as above
E13 [13] = experiment: as above
FT3469 [14] = experiment: as above
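Wherever phenotypic distance (Euclidean, principal components) from DMSO controls is given: cell Painting imaging in 384-well plates, CellProfiler features reduced to at least 20 principal components, Euclidean distance versus same-plate DMSO vehicle wells (0.1% v/v), median over six images per well.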
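Wherever surviving fraction (nuclei count normalised to DMSO) is given: nuclei counted by high-content imaging of Hoechst-stained cells in laminin-coated 384-well plates, relative to 0.1% DMSO vehicle wells, with staurosporine as cell-death control.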

C[C@@]12C(=O)OC(=O)[C@]1(C)[C@H]1CC[C@@H]2O1 [Cantharidin]
Details | phenotypic distance | surviving fraction
E13 [6], 4.1 nM | – | 0.826
E13 [6], 12.3 nM | – | 0.96
E13 [6], 37 nM | – | 0.919
E13 [6], 111.1 nM | – | 0.735
E13 [6], 333.3 nM | – | 0.139
E13 [6], 1000 nM | – | 0.000925
E13 [6], 3000 nM | – | 0
E13 [13], 4.1 nM | 0.99 | –
E13 [13], 12.3 nM | 0.872 | –
E13 [13], 37 nM | 1.04 | –
E13 [13], 111.1 nM | 2.26 | –
E13 [13], 333.3 nM | 7.52 | –
E13 [13], 1000 nM | 22.3 | –
E13 [13], 3000 nM | 22.7 | –
E21 [4], 4.1 nM | – | 0.865
E21 [4], 12.3 nM | – | 1.05
E21 [4], 37 nM | – | 0.984
E21 [4], 111.1 nM | – | 0.819
E21 [4], 333.3 nM | – | 0.148
E21 [4], 1000 nM | – | 0.00198
E21 [4], 3000 nM | – | 0.00297
E21 [11], 4.1 nM | 0.902 | –
E21 [11], 12.3 nM | 0.679 | –
E21 [11], 37 nM | 0.822 | –
E21 [11], 111.1 nM | 2.07 | –
E21 [11], 333.3 nM | 7.76 | –
E21 [11], 1000 nM | 24.2 | –
E21 [11], 3000 nM | 19.8 | –
E28 [5], 4.1 nM | – | 1.04
E28 [5], 12.3 nM | – | 1.01
E28 [5], 37 nM | – | 0.751
E28 [5], 111.1 nM | – | 0.783
E28 [5], 333.3 nM | – | 0.171
E28 [5], 1000 nM | – | 0.0107
E28 [5], 3000 nM | – | 0
E28 [12], 4.1 nM | 0.669 | –
E28 [12], 12.3 nM | 0.782 | –
E28 [12], 37 nM | 1.16 | –
E28 [12], 111.1 nM | 2.74 | –
E28 [12], 333.3 nM | 6.99 | –
E28 [12], 1000 nM | 10.5 | –
E28 [12], 3000 nM | 17.9 | –
E31 [1], 4.1 nM | – | 0.771
E31 [1], 12.3 nM | – | 0.967
E31 [1], 37 nM | – | 0.793
E31 [1], 111.1 nM | – | 0.531
E31 [1], 333.3 nM | – | 0.0179
E31 [1], 1000 nM | – | 0
E31 [1], 3000 nM | – | 0.00163
E31 [8], 4.1 nM | 1.14 | –
E31 [8], 12.3 nM | 0.733 | –
E31 [8], 37 nM | 1.22 | –
E31 [8], 111.1 nM | 2.51 | –
E31 [8], 333.3 nM | 10.8 | –
E31 [8], 1000 nM | 17.7 | –
E31 [8], 3000 nM | 15.6 | –
E34 [3], 4.1 nM | – | 0.848
E34 [3], 12.3 nM | – | 1.05
E34 [3], 37 nM | – | 1.05
E34 [3], 111.1 nM | – | 0.764
E34 [3], 333.3 nM | – | 0.323
E34 [3], 1000 nM | – | 0.0804
E34 [3], 3000 nM | – | 0.0035
E34 [10], 4.1 nM | 0.932 | –
E34 [10], 12.3 nM | 0.828 | –
E34 [10], 37 nM | 0.895 | –
E34 [10], 111.1 nM | 2.91 | –
E34 [10], 333.3 nM | 8.47 | –
E34 [10], 1000 nM | 14.9 | –
E34 [10], 3000 nM | 24.2 | –
E57 [2], 4.1 nM | – | 0.874
E57 [2], 12.3 nM | – | 0.97
E57 [2], 37 nM | – | 0.933
E57 [2], 111.1 nM | – | 0.882
E57 [2], 333.3 nM | – | 0.172
E57 [2], 1000 nM | – | 0.00764
E57 [2], 3000 nM | – | 0.00204
E57 [9], 4.1 nM | 4.16 | –
E57 [9], 12.3 nM | 0.795 | –
E57 [9], 37 nM | 0.509 | –
E57 [9], 111.1 nM | 1.44 | –
E57 [9], 333.3 nM | 7.24 | –
E57 [9], 1000 nM | 9.13 | –
E57 [9], 3000 nM | 24.7 | –
FT3469 [7], 4.1 nM | – | 0.78
FT3469 [7], 12.3 nM | – | 1.06
FT3469 [7], 37 nM | – | 0.835
FT3469 [7], 111.1 nM | – | 0.714
FT3469 [7], 333.3 nM | – | 0.276
FT3469 [7], 1000 nM | – | 0.0288
FT3469 [7], 3000 nM | – | 0.00288
FT3469 [14], 4.1 nM | 1.54 | –
FT3469 [14], 12.3 nM | 0.532 | –
FT3469 [14], 37 nM | 1.22 | –
FT3469 [14], 111.1 nM | 1.87 | –
FT3469 [14], 333.3 nM | 5.81 | –
FT3469 [14], 1000 nM | 10.9 | –
FT3469 [14], 3000 nM | 17.1 | –

CCC[C@@H]1C[C@@H](C(=O)N[C@@H]([C@H]2O[C@H](SC)[C@H](O)[C@@H](O)[C@H]2O)[C@@H](C)O)N(C)C1 [Lincomycin hydrochloride]
Details | phenotypic distance | surviving fraction
E13 [6], 4.1 nM | – | 0.937
E13 [6], 12.3 nM | – | 0.912
E13 [6], 37 nM | – | 0.891
E13 [6], 111.1 nM | – | 0.967
E13 [6], 333.3 nM | – | 1.07
E13 [6], 1000 nM | – | 1.1
E13 [6], 3000 nM | – | 0.894
E13 [13], 4.1 nM | 0.648 | –
E13 [13], 12.3 nM | 0.534 | –
E13 [13], 37 nM | 0.423 | –
E13 [13], 111.1 nM | 0.641 | –
E13 [13], 333.3 nM | 0.442 | –
E13 [13], 1000 nM | 0.768 | –
E13 [13], 3000 nM | 0.427 | –
E21 [4], 4.1 nM | – | 0.94
E21 [4], 12.3 nM | – | 0.873
E21 [4], 37 nM | – | 0.963
E21 [4], 111.1 nM | – | 0.936
E21 [4], 333.3 nM | – | 0.972
E21 [4], 1000 nM | – | 0.984
E21 [4], 3000 nM | – | 0.94
E21 [11], 4.1 nM | 0.423 | –
E21 [11], 12.3 nM | 0.813 | –
E21 [11], 37 nM | 0.629 | –
E21 [11], 111.1 nM | 0.635 | –
E21 [11], 333.3 nM | 0.696 | –
E21 [11], 1000 nM | 0.667 | –
E21 [11], 3000 nM | 0.478 | –
E28 [5], 4.1 nM | – | 1.05
E28 [5], 12.3 nM | – | 1.04
E28 [5], 37 nM | – | 1.08
E28 [5], 111.1 nM | – | 0.956
E28 [5], 333.3 nM | – | 1.12
E28 [5], 1000 nM | – | 1.12
E28 [5], 3000 nM | – | 1.03
E28 [12], 4.1 nM | 0.634 | –
E28 [12], 12.3 nM | 0.929 | –
E28 [12], 37 nM | 1.11 | –
E28 [12], 111.1 nM | 0.703 | –
E28 [12], 333.3 nM | 0.726 | –
E28 [12], 1000 nM | 0.598 | –
E28 [12], 3000 nM | 0.576 | –
E31 [1], 4.1 nM | – | 1.03
E31 [1], 12.3 nM | – | 0.994
E31 [1], 37 nM | – | 1.03
E31 [1], 111.1 nM | – | 1.15
E31 [1], 333.3 nM | – | 1.1
E31 [1], 1000 nM | – | 1.21
E31 [1], 3000 nM | – | 0.936
E31 [8], 4.1 nM | 0.488 | –
E31 [8], 12.3 nM | 0.574 | –
E31 [8], 37 nM | 0.621 | –
E31 [8], 111.1 nM | 0.44 | –
E31 [8], 333.3 nM | 0.659 | –
E31 [8], 1000 nM | 0.74 | –
E31 [8], 3000 nM | 0.788 | –
E34 [3], 4.1 nM | – | 0.988
E34 [3], 12.3 nM | – | 0.937
E34 [3], 37 nM | – | 0.909
E34 [3], 111.1 nM | – | 1.09
E34 [3], 333.3 nM | – | 1.11
E34 [3], 1000 nM | – | 1.25
E34 [3], 3000 nM | – | 0.902
E34 [10], 4.1 nM | 0.57 | –
E34 [10], 12.3 nM | 0.706 | –
E34 [10], 37 nM | 0.876 | –
E34 [10], 111.1 nM | 1.02 | –
E34 [10], 333.3 nM | 0.802 | –
E34 [10], 1000 nM | 0.879 | –
E34 [10], 3000 nM | 0.674 | –
E57 [2], 4.1 nM | – | 1.09
E57 [2], 12.3 nM | – | 1.08
E57 [2], 37 nM | – | 0.957
E57 [2], 111.1 nM | – | 1.07
E57 [2], 333.3 nM | – | 0.959
E57 [2], 1000 nM | – | 0.997
E57 [2], 3000 nM | – | 0.976
E57 [9], 4.1 nM | 0.854 | –
E57 [9], 12.3 nM | 1.06 | –
E57 [9], 37 nM | 0.755 | –
E57 [9], 111.1 nM | 0.617 | –
E57 [9], 333.3 nM | 0.478 | –
E57 [9], 1000 nM | 0.463 | –
E57 [9], 3000 nM | 0.394 | –
FT3469 [7], 4.1 nM | – | 0.948
FT3469 [7], 12.3 nM | – | 0.951
FT3469 [7], 37 nM | – | 0.828
FT3469 [7], 111.1 nM | – | 1.15
FT3469 [7], 333.3 nM | – | 1.1
FT3469 [7], 1000 nM | – | 1.08
FT3469 [7], 3000 nM | – | 1.08
FT3469 [14], 4.1 nM | 0.783 | –
FT3469 [14], 12.3 nM | 0.977 | –
FT3469 [14], 37 nM | 0.592 | –
FT3469 [14], 111.1 nM | 0.704 | –
FT3469 [14], 333.3 nM | 0.658 | –
FT3469 [14], 1000 nM | 1.03 | –
FT3469 [14], 3000 nM | 0.496 | –
